Among the data in US11622970B2, “BCL-2 inhibitors and their use as pharmaceuticals” (PRELUDE THERAPEUTICS INCORPORATED, priority 2020, dated 2023) are IC50 values, retold here.

The structures appear in SMILES notation.

BCL-2 recombinant protein, sequence (P10415 whole entry): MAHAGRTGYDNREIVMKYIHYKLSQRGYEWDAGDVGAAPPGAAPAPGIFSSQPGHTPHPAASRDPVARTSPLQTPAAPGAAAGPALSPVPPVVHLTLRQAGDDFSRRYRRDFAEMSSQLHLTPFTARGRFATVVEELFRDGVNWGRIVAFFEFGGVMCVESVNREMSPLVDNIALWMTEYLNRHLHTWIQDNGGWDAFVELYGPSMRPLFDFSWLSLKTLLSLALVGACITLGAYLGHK

This assay deals with BCL-2 recombinant protein (Homo sapiens, UniProt P10415). The experiment in a line: Cell free Bcl-2:Bak affinity assay (Bcl-2 Bak), HTRF competition of FAM-Bak peptide. In kind it is binding. The following applies: 10-concentration IC50 mode, 4 nM BCL-2 recombinant protein, 100 nM FAM-Bak, read-out: potency (IC50). In a few lines:
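Compounds in 10-point 3-fold dilution preincubated 10 min at RT with 4 nM GST-BCL-2 (20 mM K phosphate pH 7.5, 50 mM NaCl, 1 mM EDTA, 0.005% Triton X-100), then 100 nM FAM-Bak 10 min, anti-GST-Tb added, 60 min RT dark. HTRF read; % inhibition vs DMSO and positive control, IC50 from curve fit.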
The term IC50 denotes the concentration at which inhibition is half-maximal. As to `Cc1c(Cl)c(C(=O)NS(=O)(=O)c2ccc(N3CCN(CC4=C(c5ccc(Cl)cc5)CC(C)(C)CC4)CC3)cc2Oc2cnc3[nH]ccc3c2)cc([N+](=O)[O-])c1OCC1COC1` [Example 103, 2-chloro-N-[4-[4-[[2-(4-chlorophenyl)-4,4-dimethylcyclohexen-1-yl]methyl]piperazin-1-yl]-2-(1H-pyrrolo[2,3-b]pyridin-5-yloxy)phenyl]sulfonyl-3-methyl-5-nitro-4-(oxetan-3-ylmethoxy)benzamide], the IC50 was in the range of 0.01 to 0.1 µM. With `Cc1c(Cl)c(C(=O)NS(=O)(=O)c2ccc(N3CCN(CC4=C(c5ccc(Cl)cc5)CC(C)(C)CC4)CC3)cc2Oc2cnc3[nH]ccc3c2)cc([N+](=O)[O-])c1OCC1CCOC1` (stereo not drawn) [Example 106, 2-chloro-N-[4-[4-[[2-(4-chlorophenyl)-4,4-dimethylcyclohexen-1-yl]methyl]piperazin-1-yl]-2-(1H-pyrrolo[2,3-b]pyridin-5-yloxy)phenyl]sulfonyl-3-methyl-5-nitro-4-(oxolan-3-ylmethoxy)benzamide], the IC50 was under 0.01 µM. The value for `Cc1c(Cl)c(C(=O)NS(=O)(=O)c2ccc(N3CCN(CC4=C(c5ccc(Cl)cc5)CC(C)(C)CC4)CC3)cc2Oc2cnc3[nH]ccc3c2)cc([N+](=O)[O-])c1OCC1CCCO1` (stereo not drawn) [Example 107, 2-chloro-N-[4-[4-[[2-(4-chlorophenyl)-4,4-dimethylcyclohexen-1-yl]methyl]piperazin-1-yl]-2-(1H-pyrrolo[2,3-b]pyridin-5-yloxy)phenyl]sulfonyl-3-methyl-5-nitro-4-(oxolan-2-ylmethoxy)benzamide] was under 0.01 µM.
